pIC50: −log10 of the molar value.
These compounds were tested on PDE4 (assay: PDE4 inhibition, scintillation proximity assay (SPA)). Details: scintillation proximity assay (SPA); evaluated as classes A, B, C; read-out: PDE4 Inhibitory Activity (concentration for the inhibition rate of 50%).
Type: biochemical
How it was run: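 Compound pre-diluted 1:10 in 50 mM Tris-HCl pH 7.4, 8.3 mM MgCl2, 1.7 mM EGTA, 3 mg/mL BSA, then incubated with PDE4 and [2,8-3H]-cAMP for 120 min at room temperature. Product captured on ZnSO4-containing YSi-SPA beads for 15 min; radioactivity counted against no-enzyme blank and DMSO control.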
For FC(F)(F)c1cc(-c2nccs2)c2oc(N3CC4CCC(C3)N4)nc2c1 [Example 51, 2-(3,8-Diazabicyclo[3.2.1]octan-3-yl)-7-(thiazol-2-yl)-5-(trifluoromethyl)benzo[d]oxazole], the pIC50 was > 7.00. COC(C)(C)c1cc(-c2cscn2)c2oc(N3CC4CCC(C3)N4)nc2c1OC(F)(F)F [Example 298, 2-(3,8-Diazabicyclo[3.2.1]octan-3-yl)-5-(2-methoxypropan-2-yl)-7-(thiazol-4-yl)-4-(trifluoromethoxy)benzo[d]oxazole] was tested, and the pIC50 was > 7.00. With O=S1(=O)CCC(Oc2ccc(-c3nccs3)c3oc(N4CC5CC(C4)N5)nc23)CC1 [Example 314, 4-((2-(3,6-Diazabicyclo[3.1.1]heptan-3-yl)-7-(thiazol-2-yl)benzo[d]oxazol-4-yl)oxy)tetrahydro-2H-thiopyran 1,1-dioxide] the pIC50 was > 7.00. With CCOC(c1ccc(-c2nccs2)c2oc(N3CC4CCC(C3)N4)nc12)C(F)(F)F (stereo not drawn) [Example 220, 2-(3,8-Diazabicyclo[3.2.1]octan-3-yl)-4-(1-ethoxy-2,2,2-trifluoroethyl)-7-(thiazol-2-yl)benzo[d]oxazole] the pIC50 was > 7.00. With C[S+]([O-])c1cc(-c2nccs2)c2oc(N3CC4CCC(C3)N4)nc2c1 (stereo not drawn) [Example 42, 2-(3,8-Diazabicyclo[3.2.1]octan-3-yl)-5-(methylsulfinyl)-7-(thiazol-2-yl)benzo[d]oxazole] the pIC50 was > 7.00. For CC(=O)c1cc(-c2nccs2)c2oc(N3CC4CC(C3)N4)nc2c1 [Example 109, 1-(2-(3,6-Diazabicyclo[3.1.1]heptan-3-yl)-7-(thiazol-2-yl)benzo[d]oxazol-5-yl)ethan-1-one], the pIC50 was > 7.00. In the case of COC(c1ccc(-c2nccs2)c2oc(N3CC4CCC(C3)N4)nc12)C(F)F (stereo not drawn) [Example 131, 2-(3,8-Diazabicyclo[3.2.1]octan-3-yl)-4-(2,2-difluoro-1-methoxyethyl)-7-(thiazol-2-yl)benzo[d]oxazole], the pIC50 was > 7.00. COC(C)(c1cc(-c2nccs2)c2oc(N3CC4CCC(C3)N4)nc2c1OC(F)(F)F)C(F)(F)F (stereo not drawn) [Example 215, 2-(3,8-Diazabicyclo[3.2.1]octan-3-yl)-7-(thiazol-2-yl)-5-(1,1,1-trifluoro-2-methoxypropan-2-yl)-4-(trifluoromethoxy)benzo[d]oxazole] was tested, and the pIC50 was > 7.00. In the case of OC(c1ccc(-c2nccs2)c2oc(N3CC4CCC(C3)N4)nc12)C(F)(F)F (stereo not drawn) [Example 118, 1-(2-(3,8-Diazabicyclo[3.2.1]octan-3-yl)-7-(thiazol-2-yl)benzo[d]oxazol-4-yl)-2,2,2-trifluoroethan-1-ol], the pIC50 was > 7.00. With CC(O)c1ccc(-c2nccs2)c2oc(N3CC4CCC(C3)N4)nc12 (stereo not drawn) [Example 124, 1-(2-(3,8-Diazabicyclo[3.2.1]octan-3-yl)-7-(thiazol-2-yl)benzo[d]oxazol-4-yl)ethan-1-ol] the pIC50 was > 7.00. For FC(F)(F)COC(c1ccc(-c2nccs2)c2oc(N3CC4CCC(C3)N4)nc12)C(F)(F)F (stereo not drawn) [Example 221, 2-(3,8-Diazabicyclo[3.2.1]octan-3-yl)-7-(thiazol-2-yl)-4-(2,2,2-trifluoro-1-(2,2,2-trifluoroethoxy)ethyl)benzo[d]oxazole], the pIC50 was > 7.00. For CC(O)c1cc(-c2nccs2)c2oc(N3CC4CCC(C3)N4)nc2c1 (stereo not drawn) [Example 106, 1-(2-(3,8-Diazabicyclo[3.2.1]octan-3-yl)-7-(thiazol-2-yl)benzo[d]oxazol-5-yl)ethan-1-ol], the pIC50 was > 7.00. In the case of OC(c1cc(-c2cscn2)c2oc(N3CC4CCC(C3)N4)nc2c1OC(F)(F)F)C(F)F (stereo not drawn) [Example 302, 1-(2-(3,8-Diazabicyclo[3.2.1]octan-3-yl)-7-(thiazol-4-yl)-4-(trifluoromethoxy)benzo[d]oxazol-5-yl)-2,2-difluoroethan-1-ol], the pIC50 was > 7.00. With FC(F)(F)Oc1c(Cl)cc(-c2nccs2)c2oc(N3CC4COCC(C3)N4)nc12 [Example 4, 7-(5-Chloro-7-(thiazol-2-yl)-4-(trifluoromethoxy)benzo [d]oxazol-2-yl)-3-oxa-7,9-diazabicyclo[3.3.1]nonane] the pIC50 was > 7.00. For Oc1ccc(-c2nccs2)c2oc(N3CC4CCCC(C3)N4)nc12 [Example 80, 2-(3,9-Diazabicyclo[3.3.1]nonan-3-yl)-7-(thiazol-2-yl) benzo[d]oxazol-4-ol], the pIC50 was > 7.00. In the case of CC(C)(O)CC(F)(F)Oc1ccc(-c2nccs2)c2oc(N3CC4CC(C3)N4)nc12 [Example 295, 4-((2-(3,6-Diazabicyclo[3.1.1]heptan-3-yl)-7-(thiazol-2-yl)benzo[d]oxazol-4-yl)oxy)-4,4-difluoro-2-methylbutan-2-ol], the pIC50 was > 7.00. In the case of CC(O)c1ccc(-c2nccs2)c2oc(N3CC4CCCC(C3)N4)nc12 (stereo not drawn) [Example 239, 1-(2-(3,9-Diazabicyclo[3.3.1]nonan-3-yl)-7-(thiazol-2-yl)benzo[d]oxazol-4-yl)ethan-1-ol], the pIC50 was > 7.00. In the case of COCc1cc(-c2nccs2)c2oc(N3CC4CCC(C3)N4)nc2c1C(F)(F)F [Example 167, 2-(3,8-Diazabicyclo[3.2.1]octan-3-yl)-5-(methoxymethyl)-7-(thiazol-2-yl)-4-(trifluoromethyl)benzo[d]oxazole], the pIC50 was > 7.00. With CC(O)COC(c1ccc(-c2nccs2)c2oc(N3CC4CC(C3)N4)nc12)C(F)(F)F (stereo not drawn) [Example 261, 1-(1-(2-(3,6-Diazabicyclo[3.1.1]heptan-3-yl)-7-(thiazol-2-yl)benzo[d]oxazol-4-yl)-2,2,2-trifluoroethoxy)propan-2-ol] the pIC50 was > 7.00. CC(O)c1cc(-c2nccs2)c2oc(N3CC4CCC(C3)N4)nc2c1OC(F)(F)F (stereo not drawn) [Example 202, 1-(2-(3,8-Diazabicyclo[3.2.1]octan-3-yl)-7-(thiazol-2-yl)-4-(trifluoromethoxy)benzo[d]oxazol-5-yl)ethan-1-ol] was tested, and the pIC50 was > 7.00. For Oc1ccc(-c2nccs2)c2oc(N3CC4CC(C3)N4)nc12 [Example 79, 2-(3,6-Diazabicyclo[3.1.1]heptan-3-yl)-7-(thiazol-2-yl)benzo[d]oxazol-4-ol], the pIC50 was > 7.00. For CCOC(=O)c1ccc(-c2nccs2)c2oc(N3CC4CCC(C3)N4)nc12 [Example 112, Ethyl 2-(3,8-diazabicyclo[3.2.1]octan-3-yl)-7-(thiazol-2-yl) benzo[d]oxazole-4-carboxylate], the pIC50 was > 7.00. In the case of CCOC(=O)c1cc(-c2nccs2)c2oc(N3CC4CCC(C3)N4)nc2c1 [Example 86, Ethyl 2-(3,8-diazabicyclo[3.2.1]octan-3-yl)-7-(thiazol-2-yl) benzo[d]oxazole-5-carboxylate], the pIC50 was > 7.00. In the case of COC(C)(C)c1cc(-c2nccs2)c2oc(N3CC4CCC(C3)N4)nc2c1C(F)(F)F [Example 171, 2-(3,8-Diazabicyclo[3.2.1]octan-3-yl)-5-(2-methoxypropan-2-yl)-7-(thiazol-2-yl)-4-(trifluoromethyl)benzo[d]oxazole], the pIC50 was > 7.00. In the case of FC(F)(F)c1ccc(-c2nccs2)c2oc(N3CC4CC(C3)N4)nc12 [Example 32, 2-(3,6-Diazabicyclo[3.1.1]heptan-3-yl)-7-(thiazol-2-yl)-4-(trifluoromethyl)benzo[d]oxazole], the pIC50 was > 7.00. In the case of FC(F)(F)COc1cc(-c2nccs2)c2oc(N3CC4CCC(C3)N4)nc2c1 [Example 66, 2-(3,8-Diazabicyclo[3.2.1]octan-3-yl)-7-(thiazol-2-yl)-5-(2,2,2-trifluoroethoxy)benzo[d]oxazole], the pIC50 was > 7.00. CC(=O)N(C)c1cc(-c2nccs2)c2oc(N3CC4CCC(C3)N4)nc2c1 [Example 101, N-(2-(3,8-diazabicyclo[3.2.1]octan-3-yl)-7-(thiazol-2-yl)benzo[d]oxazol-5-yl)-N-methylacetamide] was tested, and the pIC50 was > 7.00. In the case of CC(O)C(F)(F)Oc1ccc(-c2cscn2)c2oc(N3CC4CC(C3)N4)nc12 (stereo not drawn) [Example 309, 1-((2-(3,6-Diazabicyclo[3.1.1]heptan-3-yl)-7-(thiazol-4-yl)benzo[d]oxazol-4-yl)oxy)-1,1-difluoropropan-2-ol], the pIC50 was > 7.00. For NC(=O)COC(c1ccc(-c2nccs2)c2oc(N3CC4CC(C3)N4)nc12)C(F)(F)F (stereo not drawn) [Example 256, 2-(1-(2-(3,6-Diazabicyclo[3.1.1]heptan-3-yl)-7-(thiazol-2-yl)benzo[d]oxazol-4-yl)-2,2,2-trifluoroethoxy)acetamide], the pIC50 was > 7.00. COC(C)(c1cc(-c2nccs2)c2oc(N3CC4CC(C3)N4)nc2c1OC(F)(F)F)C(F)(F)F (stereo not drawn) [Example 214, 2-(3,6-Diazabicyclo[3.1.1]heptan-3-yl)-7-(thiazol-2-yl)-5-(1,1,1-trifluoro-2-methoxypropan-2-yl)-4-(trifluoromethoxy)benzo[d]oxazole] was tested, and the pIC50 was > 7.00. In the case of FC(F)(F)Oc1cc(-c2nccs2)c2oc(N3CC4CC(C3)N4)nc2c1 [Example 56, 2-(3,6-Diazabicyclo[3.1.1]heptan-3-yl)-7-(thiazol-2-yl)-5-(trifluoromethoxy)benzo[d]oxazole], the pIC50 was > 7.00. For FC(F)(F)Oc1ccc(-c2nccs2)c2oc(N3CC4CCCC(C3)N4)nc12 [Example 30, 2-(3,9-Diazabicyclo[3.3.1]nonan-3-yl)-7-(thiazol-2-yl)-4-(trifluoromethoxy)benzo[d]oxazole], the pIC50 was > 7.00. CC(O)c1cc(-c2nccs2)c2oc(N3CC4CC(C3)N4)nc2c1 (stereo not drawn) [Example 107, 1-(2-(3,6-Diazabicyclo[3.1.1]heptan-3-yl)-7-(thiazol-2-yl)benzo[d]oxazol-5-yl)ethan-1-ol] was tested, and the pIC50 was 6.00 to 7.00. In the case of OCC(F)(F)Oc1ccc(-c2cscn2)c2oc(N3CC4CCC(C3)N4)nc12 [Example 312, 2-((2-(3,8-Diazabicyclo[3.2.1]octan-3-yl)-7-(thiazol-4-yl)benzo[d]oxazol-4-yl)oxy)-2,2-difluoroethan-1-ol], the pIC50 was > 7.00. O=C(c1cc(-c2nccs2)c2oc(N3CC4CCC(C3)N4)nc2c1)N1CCOCC1 [Example 95, (2-(3,8-Diazabicyclo[3.2.1]octan-3-yl)-7-(thiazol-2-yl)benzo[d]oxazol-5-yl)(morpholino)methanone] was tested, and the pIC50 was > 7.00.

Same assay, conditions: scintillation proximity assay; class symbols; read-out: PDE4 Inhibitory Activity
In the case of ON1C2CCC1CN(c1nc3c(OC(F)(F)F)c(Cl)cc(-c4nccs4)c3o1)C2 [Example 375, 3-(5-chloro-7-(thiazol-2-yl)-4-(trifluoro-methoxy)benzo[d]oxazol-2-yl)-3,8-diazabicyclo[3.2.1] octan-8-ol], the pIC50 was > 7.00.

Reference: patent US10669283B2, “Compound and pharmacologically acceptable salt thereof” (MEIJI SEIKA PHARMA CO., LTD., priority 2016, dated 2020)
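For PDE4 Inhibitory Activity (concentration for the inhibition rate of 50%) in this document: A below 100 nM B 100 to below 1000 nM C 1000 nM or more.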
